Literature values, collected in article PMC6986806 (Nature chemical biology, 2020).

Test system: GluN1/GluN2D

COc1ccc(OCC2c3cc(OC)c(OC)cc3CCN2C(=O)c2cccc(Cl)c2)cc1 (stereo not shown) [CIQ]
effect on GluN1/GluN2D unitary current: no effect
